Assay results: ChEMBL document CHEMBL4680246, “Design, synthesis and biological evaluation of novel O-carbamoyl ferulamide derivatives as multi-target-directed ligands for the treatment of Alzheimer's disease” (Eur J Med Chem, 2020)

Key:
Cholinesterase [1] = target: Cholinesterase (Homo sapiens, UniProt P06276); test: Inhibition of human serum BuChE using acetylcholine iodide as substrate incubated for 15 mins by Ellman's method
Homo sapiens [2] = species on record: Homo sapiens; test: Selectivity index, ratio of IC50 for human erythrocytes Ache to IC50 for human serum BuChe
[3] = Selectivity index, ratio of IC50 for Electrophorus electricus AChE to IC50 for equine serum BuChE
[4] = target: T1, Amine oxidase [flavin-containing] B (Homo sapiens, UniProt P27338); test: Inhibition of recombinant human MAO-B
T1 sequence (P27338 whole entry): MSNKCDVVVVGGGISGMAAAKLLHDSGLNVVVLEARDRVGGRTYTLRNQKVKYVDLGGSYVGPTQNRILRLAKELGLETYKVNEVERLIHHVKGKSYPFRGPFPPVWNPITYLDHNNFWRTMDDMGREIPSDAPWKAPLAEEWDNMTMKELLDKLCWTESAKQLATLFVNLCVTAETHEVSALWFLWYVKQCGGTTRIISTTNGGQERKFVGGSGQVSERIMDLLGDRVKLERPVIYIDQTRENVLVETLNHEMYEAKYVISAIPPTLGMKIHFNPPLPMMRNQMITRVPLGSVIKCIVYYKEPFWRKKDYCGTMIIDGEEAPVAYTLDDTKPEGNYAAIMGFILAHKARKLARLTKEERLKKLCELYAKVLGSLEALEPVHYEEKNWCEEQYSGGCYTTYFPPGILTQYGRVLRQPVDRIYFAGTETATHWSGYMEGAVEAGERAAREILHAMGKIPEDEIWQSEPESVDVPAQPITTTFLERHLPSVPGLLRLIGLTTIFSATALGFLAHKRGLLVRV

Acetylcholinesterase [5] = target: Acetylcholinesterase (Homo sapiens, UniProt P22303); test: Inhibition of human erythrocytes AChE using acetylcholine iodide as substrate incubated for 15 mins by Ellman's method
Acetylcholinesterase (Homo sapiens, UniProt P22303), sequence (P22303 whole entry): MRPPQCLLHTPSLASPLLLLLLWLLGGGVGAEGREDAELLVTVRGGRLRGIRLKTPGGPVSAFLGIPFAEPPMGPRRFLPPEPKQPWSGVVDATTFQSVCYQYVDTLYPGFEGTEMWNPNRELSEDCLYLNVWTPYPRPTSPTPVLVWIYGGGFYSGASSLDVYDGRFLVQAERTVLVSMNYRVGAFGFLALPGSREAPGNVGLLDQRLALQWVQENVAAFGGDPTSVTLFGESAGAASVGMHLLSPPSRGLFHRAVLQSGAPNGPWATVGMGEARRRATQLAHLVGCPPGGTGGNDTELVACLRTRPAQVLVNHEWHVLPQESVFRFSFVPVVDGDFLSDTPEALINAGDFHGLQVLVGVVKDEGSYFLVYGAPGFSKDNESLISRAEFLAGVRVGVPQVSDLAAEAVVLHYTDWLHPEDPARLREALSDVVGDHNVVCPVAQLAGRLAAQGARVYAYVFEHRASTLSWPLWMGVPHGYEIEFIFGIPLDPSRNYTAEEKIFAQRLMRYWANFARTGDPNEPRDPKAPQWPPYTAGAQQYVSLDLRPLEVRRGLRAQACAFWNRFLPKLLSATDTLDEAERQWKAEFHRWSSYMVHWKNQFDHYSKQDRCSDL

Acetylcholinesterase [6] = target: Acetylcholinesterase (Electrophorus electricus, UniProt O42275); test: Inhibition of Electrophorus electricus AChE using acetylcholine iodide as substrate incubated for 15 mins by Ellman's method
Acetylcholinesterase (Electrophorus electricus, UniProt O42275), sequence (O42275 whole entry): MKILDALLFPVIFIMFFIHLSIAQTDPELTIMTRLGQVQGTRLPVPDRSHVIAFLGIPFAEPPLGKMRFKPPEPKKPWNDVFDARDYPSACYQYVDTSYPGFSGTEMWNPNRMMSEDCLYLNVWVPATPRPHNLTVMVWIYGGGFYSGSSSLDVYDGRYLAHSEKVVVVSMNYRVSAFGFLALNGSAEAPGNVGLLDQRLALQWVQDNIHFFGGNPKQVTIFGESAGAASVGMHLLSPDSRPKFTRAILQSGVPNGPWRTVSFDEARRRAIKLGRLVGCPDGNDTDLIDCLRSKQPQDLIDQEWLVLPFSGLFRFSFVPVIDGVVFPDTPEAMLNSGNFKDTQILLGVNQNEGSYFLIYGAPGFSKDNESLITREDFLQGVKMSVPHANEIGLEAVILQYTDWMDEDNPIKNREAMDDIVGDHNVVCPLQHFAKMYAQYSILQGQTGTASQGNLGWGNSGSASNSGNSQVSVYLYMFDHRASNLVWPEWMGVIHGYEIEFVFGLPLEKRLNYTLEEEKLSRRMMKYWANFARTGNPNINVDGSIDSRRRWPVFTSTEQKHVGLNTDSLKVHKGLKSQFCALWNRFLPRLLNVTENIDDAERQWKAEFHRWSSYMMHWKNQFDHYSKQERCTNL

Cholinesterase [7] = target: Cholinesterase (Equus caballus, UniProt P81908); test: Inhibition of equine serum BuChE using BTC as substrate after 15 mins by Ellman's method
Cholinesterase (Equus caballus, UniProt P81908), sequence (P81908 whole entry): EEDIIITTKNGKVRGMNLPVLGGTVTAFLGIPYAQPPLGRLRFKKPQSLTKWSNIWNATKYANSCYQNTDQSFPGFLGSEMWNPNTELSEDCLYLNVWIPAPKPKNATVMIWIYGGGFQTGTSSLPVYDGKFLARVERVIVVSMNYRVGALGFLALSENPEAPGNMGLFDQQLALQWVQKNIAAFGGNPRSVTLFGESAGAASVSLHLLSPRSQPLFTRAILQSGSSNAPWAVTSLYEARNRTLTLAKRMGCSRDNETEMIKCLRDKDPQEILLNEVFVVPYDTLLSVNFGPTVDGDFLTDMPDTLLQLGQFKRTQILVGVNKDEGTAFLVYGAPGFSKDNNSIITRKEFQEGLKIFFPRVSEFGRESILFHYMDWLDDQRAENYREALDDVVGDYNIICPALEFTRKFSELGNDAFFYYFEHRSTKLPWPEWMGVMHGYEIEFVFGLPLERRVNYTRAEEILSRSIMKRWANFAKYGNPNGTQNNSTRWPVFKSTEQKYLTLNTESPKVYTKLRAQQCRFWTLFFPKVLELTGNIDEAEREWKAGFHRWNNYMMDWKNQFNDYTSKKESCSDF

[8] = target: T2, Amine oxidase [flavin-containing] A (Homo sapiens, UniProt P21397); test: Inhibition of recombinant human MAO-A
T2 sequence (P21397 whole entry): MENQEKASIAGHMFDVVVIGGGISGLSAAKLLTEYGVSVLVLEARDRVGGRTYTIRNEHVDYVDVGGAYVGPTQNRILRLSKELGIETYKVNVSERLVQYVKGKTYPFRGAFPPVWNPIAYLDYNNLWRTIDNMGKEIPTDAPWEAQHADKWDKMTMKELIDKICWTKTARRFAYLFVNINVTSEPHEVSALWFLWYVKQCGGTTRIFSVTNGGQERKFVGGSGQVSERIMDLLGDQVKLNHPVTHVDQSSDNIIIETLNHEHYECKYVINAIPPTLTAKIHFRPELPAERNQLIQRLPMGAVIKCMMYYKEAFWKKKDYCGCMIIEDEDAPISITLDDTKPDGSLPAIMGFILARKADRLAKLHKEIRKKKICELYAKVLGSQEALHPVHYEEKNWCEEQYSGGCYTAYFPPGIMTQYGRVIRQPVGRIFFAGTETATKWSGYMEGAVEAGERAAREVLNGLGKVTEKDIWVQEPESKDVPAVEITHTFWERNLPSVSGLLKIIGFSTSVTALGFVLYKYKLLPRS

Homo sapiens [9] = species on record: Homo sapiens; test: Selectivity index, ratio of IC50 for recombinant human MAO-A to IC50 for recombinant human MAO-B
[10] = target: Amyloid-beta precursor protein (Homo sapiens) (UniProt P05067); test: Inhibition of self-induced Amyloid beta (1 to 42 residues) (unknown origin) aggregation at 25 uM measured after 24 hrs by thioflavin T-based fluorimetric assay relative to control
Amyloid-beta precursor protein (Homo sapiens), sequence (P05067 whole entry, the tested form may be a part): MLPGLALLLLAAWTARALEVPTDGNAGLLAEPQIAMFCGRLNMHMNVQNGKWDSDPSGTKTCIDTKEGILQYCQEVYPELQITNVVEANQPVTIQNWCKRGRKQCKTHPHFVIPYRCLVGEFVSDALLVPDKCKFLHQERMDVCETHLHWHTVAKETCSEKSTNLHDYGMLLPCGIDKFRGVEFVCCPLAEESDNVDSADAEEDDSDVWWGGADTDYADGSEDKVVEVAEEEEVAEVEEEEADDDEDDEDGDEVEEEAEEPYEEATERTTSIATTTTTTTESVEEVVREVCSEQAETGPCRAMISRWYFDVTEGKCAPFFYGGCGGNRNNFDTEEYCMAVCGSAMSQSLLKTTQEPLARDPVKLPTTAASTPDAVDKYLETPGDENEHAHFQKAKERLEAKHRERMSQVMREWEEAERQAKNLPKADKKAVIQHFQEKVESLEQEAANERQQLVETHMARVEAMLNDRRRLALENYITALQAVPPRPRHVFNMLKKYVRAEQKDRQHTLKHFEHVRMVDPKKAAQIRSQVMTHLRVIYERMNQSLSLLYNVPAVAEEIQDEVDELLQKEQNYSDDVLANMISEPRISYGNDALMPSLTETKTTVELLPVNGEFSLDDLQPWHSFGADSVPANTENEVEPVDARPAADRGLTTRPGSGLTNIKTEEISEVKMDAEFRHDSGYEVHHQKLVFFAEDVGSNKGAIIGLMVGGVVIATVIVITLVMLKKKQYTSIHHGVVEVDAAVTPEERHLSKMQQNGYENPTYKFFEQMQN

[11] = target: Cholinesterase (Equus caballus) (UniProt P81908); test: Inhibition of equine serum BuChE at 25 uM using BTC as substrate after 15 mins by Ellman's method relative to control
Cholinesterase (Equus caballus), sequence (P81908 whole entry): as the sequence (P81908 whole entry) above

Cholinesterase (Homo sapiens, UniProt P06276), sequence (P06276 whole entry): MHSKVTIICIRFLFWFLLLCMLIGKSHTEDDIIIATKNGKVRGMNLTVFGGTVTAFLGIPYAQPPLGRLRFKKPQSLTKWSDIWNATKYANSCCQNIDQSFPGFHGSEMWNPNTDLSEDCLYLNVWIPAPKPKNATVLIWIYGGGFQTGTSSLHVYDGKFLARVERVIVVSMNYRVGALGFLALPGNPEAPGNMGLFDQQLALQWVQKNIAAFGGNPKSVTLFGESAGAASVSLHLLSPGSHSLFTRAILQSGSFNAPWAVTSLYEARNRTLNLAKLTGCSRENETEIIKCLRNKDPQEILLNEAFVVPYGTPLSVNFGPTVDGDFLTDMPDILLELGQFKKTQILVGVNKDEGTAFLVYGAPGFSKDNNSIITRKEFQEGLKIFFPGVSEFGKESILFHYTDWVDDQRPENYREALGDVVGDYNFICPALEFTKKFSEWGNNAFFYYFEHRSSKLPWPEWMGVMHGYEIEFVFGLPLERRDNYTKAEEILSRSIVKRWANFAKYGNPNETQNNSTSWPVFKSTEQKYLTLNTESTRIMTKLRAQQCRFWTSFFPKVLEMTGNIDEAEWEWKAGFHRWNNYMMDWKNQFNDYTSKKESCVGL

CCN(CC)C(=O)/C=C/c1ccc(OC(=O)N(C)C)c(OC)c1
IC50 (Cholinesterase [1]): 15.2 µM | Ratio IC50 (Homo sapiens [2]): 0.86 | Ratio IC50 [3]: 0.93 | IC50 [4]: 31.8 µM | IC50 (Acetylcholinesterase [5]): 13.1 µM | IC50 (Acetylcholinesterase [6]): 17.8 µM | IC50 (Cholinesterase [7]): 19.2 µM | IC50 [8]: 30.9 µM | Ratio IC50 (Homo sapiens [9]): 0.97

CCN(C)C(=O)Oc1ccc(/C=C/C(=O)N(CC)Cc2ccccc2)cc1OC
IC50 (Cholinesterase [1]): 3.8 µM | Ratio IC50 (Homo sapiens [2]): 5.4 | Ratio IC50 [3]: 13 | inhibition [10]: 50.7% | IC50 [4]: 9.5 µM | IC50 (Acetylcholinesterase [5]): 20.7 µM | IC50 (Acetylcholinesterase [6]): 19.5 µM | IC50 (Cholinesterase [7]): 1.5 µM | IC50 [8]: 14.1 µM | Ratio IC50 (Homo sapiens [9]): 1.5

COc1cc(/C=C/C(=O)N2CCN(Cc3ccccc3)CC2)ccc1OC(=O)N(C)C
IC50 (Cholinesterase [1]): 14.2 µM | Ratio IC50 (Homo sapiens [2]): 1.7 | Ratio IC50 [3]: 1.9 | IC50 [4]: 16.7 µM | IC50 (Acetylcholinesterase [5]): 23.5 µM | IC50 (Acetylcholinesterase [6]): 22.7 µM | IC50 (Cholinesterase [7]): 12.1 µM | IC50 [8]: 39.1 µM | Ratio IC50 (Homo sapiens [9]): 2.3

CCN(C)C(=O)Oc1ccc(/C=C/C(=O)N2CCCCC2)cc1OC
IC50 (Cholinesterase [1]): 12.6 µM | Ratio IC50 (Homo sapiens [2]): 0.85 | Ratio IC50 [3]: 0.78 | IC50 [4]: 16.3 µM | IC50 (Acetylcholinesterase [5]): 10.7 µM | IC50 (Acetylcholinesterase [6]): 15.3 µM | IC50 (Cholinesterase [7]): 19.6 µM | IC50 [8]: 29.6 µM | Ratio IC50 (Homo sapiens [9]): 1.8

CCN(C)C(=O)Oc1ccc(/C=C/C(=O)N2CCC(Cc3ccccc3)CC2)cc1
IC50 (Cholinesterase [1]): 5.6 µM | Ratio IC50 (Homo sapiens [2]): 4.8 | Ratio IC50 [3]: 4.2 | inhibition [10]: 48.1% | IC50 [4]: 7.8 µM | IC50 (Acetylcholinesterase [5]): 27.1 µM | IC50 (Acetylcholinesterase [6]): 22.1 µM | IC50 (Cholinesterase [7]): 5.3 µM | IC50 [8]: 56.8 µM | Ratio IC50 (Homo sapiens [9]): 7.3

CCN(CC)C(=O)Oc1ccc(/C=C/C(=O)N2CCN(Cc3ccccc3)CC2)cc1OC
IC50 (Cholinesterase [1]): 10.6 µM | Ratio IC50 (Homo sapiens [2]): 1.6 | Ratio IC50 [3]: 2.2 | IC50 [4]: 23.2 µM | IC50 (Acetylcholinesterase [5]): 16.8 µM | IC50 (Acetylcholinesterase [6]): 19.2 µM | IC50 (Cholinesterase [7]): 8.7 µM | IC50 [8]: 19.7 µM | Ratio IC50 (Homo sapiens [9]): 0.8

COc1cc(/C=C/C(=O)O)ccc1O [FERULATE]
IC50 (Cholinesterase [1]): > 100 µM | IC50 (Acetylcholinesterase [5]): > 100 µM | IC50 (Acetylcholinesterase [6]): > 100 µM | IC50 (Cholinesterase [7]): > 100 µM

CCN(C)C(=O)Oc1ccc(/C=C/C(=O)N2CCc3ccccc3C2)cc1
IC50 (Cholinesterase [1]): 3.7 µM | Ratio IC50 (Homo sapiens [2]): 1.8 | Ratio IC50 [3]: 4.7 | inhibition [10]: 52.9% | IC50 [4]: 8.3 µM | IC50 (Acetylcholinesterase [5]): 6.8 µM | IC50 (Acetylcholinesterase [6]): 17.7 µM | IC50 (Cholinesterase [7]): 3.8 µM | IC50 [8]: 97.3 µM | Ratio IC50 (Homo sapiens [9]): 11.7

COc1cc(/C=C/C(=O)N2CCc3ccccc3C2)ccc1OC(=O)N(C)OC
IC50 (Cholinesterase [1]): 16.2 µM | Ratio IC50 (Homo sapiens [2]): 0.76 | Ratio IC50 [3]: 0.4 | IC50 [4]: 6.8 µM | IC50 (Acetylcholinesterase [5]): 12.3 µM | IC50 (Acetylcholinesterase [6]): 11.8 µM | IC50 (Cholinesterase [7]): 29.2 µM | IC50 [8]: 22.2 µM | Ratio IC50 (Homo sapiens [9]): 3.3

CCN(CC)C(=O)Oc1ccc(/C=C/C(=O)N2CCC(Cc3ccccc3)CC2)cc1OC
IC50 (Cholinesterase [1]): 5.1 µM | Ratio IC50 (Homo sapiens [2]): 3.9 | Ratio IC50 [3]: 9.1 | inhibition [10]: 49.7% | IC50 [4]: 5.13 µM | IC50 (Acetylcholinesterase [5]): 19.7 µM | IC50 (Acetylcholinesterase [6]): 25.6 µM | IC50 (Cholinesterase [7]): 2.8 µM | IC50 [8]: 7.8 µM | Ratio IC50 (Homo sapiens [9]): 1.5

COc1cc(/C=C/C(=O)N2CCN(Cc3ccccc3)CC2)ccc1OC(=O)N(c1ccccc1)c1ccccc1
IC50 (Cholinesterase [1]): 22.3 µM | Ratio IC50 (Homo sapiens [2]): 1.3 | IC50 [4]: 31.8 µM | IC50 (Acetylcholinesterase [5]): 28.7 µM | IC50 (Acetylcholinesterase [6]): 89.8 µM | IC50 (Cholinesterase [7]): > 100 µM | IC50 [8]: 14.7 µM | Ratio IC50 (Homo sapiens [9]): 0.5 | inhibition [11]: 9.7%
